For data set [1], the target named is T1, OATP1B1 (Homo sapiens, UniProt Q9Y6L6).
T1 construct: host or cells: CHO (Chinese hamster ovary) cells, stably transfected
T1 sequence (Q9Y6L6 1-691): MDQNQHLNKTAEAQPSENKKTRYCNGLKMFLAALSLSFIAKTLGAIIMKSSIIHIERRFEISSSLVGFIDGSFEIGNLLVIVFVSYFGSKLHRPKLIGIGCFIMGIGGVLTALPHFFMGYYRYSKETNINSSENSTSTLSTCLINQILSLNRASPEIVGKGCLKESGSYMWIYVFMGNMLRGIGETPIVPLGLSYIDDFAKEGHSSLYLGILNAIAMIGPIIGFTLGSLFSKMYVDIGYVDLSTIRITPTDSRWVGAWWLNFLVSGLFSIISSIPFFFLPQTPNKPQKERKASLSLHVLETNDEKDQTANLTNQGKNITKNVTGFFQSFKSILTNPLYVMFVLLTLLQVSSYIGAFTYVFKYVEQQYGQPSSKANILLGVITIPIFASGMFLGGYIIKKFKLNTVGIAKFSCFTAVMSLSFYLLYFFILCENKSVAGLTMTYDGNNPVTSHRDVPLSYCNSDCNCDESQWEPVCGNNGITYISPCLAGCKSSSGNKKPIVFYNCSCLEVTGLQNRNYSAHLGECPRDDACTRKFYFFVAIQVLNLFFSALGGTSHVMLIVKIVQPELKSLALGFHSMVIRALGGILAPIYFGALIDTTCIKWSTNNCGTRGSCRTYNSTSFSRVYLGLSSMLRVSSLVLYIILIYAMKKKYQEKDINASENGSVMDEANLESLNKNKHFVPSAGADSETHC
Put plainly: Inhibition of FMTX uptake in CHO cells stably transfected with OATP1B1. In kind it is cell-based. To be noted: for IC50: CHO cells stably transfected with OATP1B1, 5 μM FMTX, 10 min, 37 °C, means ± SD of three independent experiments; for Correctness of prediction, first symbol (OATP1B1): inhibitor class from measured IC50 against the consensus prediction. On the procedure:
(§1) Chinese hamster ovary (CHO) cells that were stably transfected with OATP1B1 or OATP1B3 and wild-type CHO cells were provided by the University of Zurich, Switzerland, and have been extensively characterized previously.[24],[56],[57] Cells were grown in Dulbecco’s modified Eagle medium (DMEM) supplemented with 10% FCS, 50 μg/mL L-proline, 100 U/mL penicillin, and 100 μg/mL streptomycin. The culture media of the transfected CHO cells additionally contained 500 μg/mL Geneticin sulfate (G418) (Sigma-Aldrich, Munich, Germany). Media and supplements were obtained from Invitrogen (Karlsruhe, Germany). Cells were incubated at 5% CO2 and 37 °C. For uptake experiments, CHO cells were seeded in 24-well plates (BD Biosciences, Heidelberg, Germany) at a density of 25,000 cells/well. Uptake assays were generally performed on day 3 after seeding, when the cells had grown to confluence. 24 h before starting the transport experiments, cells were additionally treated with 5 mM sodium butyrate (Sigma-Aldrich, Munich, Germany) to induce gene expression. Prior to the uptake experiments, cells were rinsed twice with 2 mL of prewarmed (37 °C) uptake buffer (116.4 mM NaCl, 5.3 mM KCL, 1 mM NaH2PO4, 0.8 mM MgSO4, 5.5 mM D-glucose, and 20 mM Hepes, pH adjusted to 7.4). Uptake was initiated by adding 0.5 mL of uptake buffer containing 5 μM of the fluorescent OATP1B1/1B3 substrate FMTX[58] in the presence or absence of inhibitors. After 10 min culture at 37 °C, uptake was stopped by removing the uptake solution and washing the cells 3 times with ice-cold uptake buffer. The cells were then lysed with 0.5 mL of 0.5% Triton X-100 solution dissolved in PBS and placed on a plate shaker for 30 min. Fluorescence was measured in an Enspire Multimode plate reader (PerkinElmer, Waltham, MA) at an excitation wavelength of 485 and an emission wavelength of 528 nm.
(§2) IC50 values were determined by plotting the log inhibitor concentration against the net uptake rate and nonlinear regression of the data set using the equation [drawing 1] in which y is the net uptake rate (pmol/μg of protein/min), I is the inhibitor concentration (μM), s is the slope at the point of inversion, and a and b are the maximum and minimum values for cellular uptake (GraphPad Software, San Diego, CA, USA) . Net uptake was calculated for each inhibitor concentration as the difference in the uptake rates of the transporter-expressing and wild-type cell lines. Unless otherwise indicated, values are expressed as mean ± SD of three individual experiments. Significant differences from control values were determined using a Student’s paired t test at a significance level of p < 0.05.

Data set [2] deals with T2, OATP1B3 (Homo sapiens, UniProt Q9NPD5).
T2 construct: host or cells: CHO (Chinese hamster ovary) cells, stably transfected
T2 sequence (Q9NPD5 1-702): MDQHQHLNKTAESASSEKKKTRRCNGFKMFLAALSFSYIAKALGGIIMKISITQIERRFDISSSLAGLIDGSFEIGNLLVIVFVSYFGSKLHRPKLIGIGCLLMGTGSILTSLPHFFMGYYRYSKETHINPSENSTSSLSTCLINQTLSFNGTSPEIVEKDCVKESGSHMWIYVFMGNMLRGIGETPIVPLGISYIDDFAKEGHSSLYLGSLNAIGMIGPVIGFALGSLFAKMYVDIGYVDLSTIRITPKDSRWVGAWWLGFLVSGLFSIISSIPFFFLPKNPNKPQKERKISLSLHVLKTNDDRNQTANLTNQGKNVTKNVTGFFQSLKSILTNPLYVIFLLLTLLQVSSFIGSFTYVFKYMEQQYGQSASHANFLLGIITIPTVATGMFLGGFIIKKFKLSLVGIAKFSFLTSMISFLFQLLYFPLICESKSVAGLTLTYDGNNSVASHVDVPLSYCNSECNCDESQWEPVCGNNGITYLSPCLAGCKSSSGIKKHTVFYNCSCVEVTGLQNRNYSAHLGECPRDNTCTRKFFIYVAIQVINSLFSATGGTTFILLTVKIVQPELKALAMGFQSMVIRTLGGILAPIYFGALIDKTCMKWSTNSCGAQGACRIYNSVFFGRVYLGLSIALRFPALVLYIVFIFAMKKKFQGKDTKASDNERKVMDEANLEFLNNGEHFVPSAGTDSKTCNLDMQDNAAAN
The data set can be described thus: Inhibition of FMTX uptake in CHO cells stably transfected with OATP1B3. The class given is cell-based. To be noted: for IC50: CHO cells stably transfected with OATP1B3, 5 μM FMTX, 10 min, 37 °C, means ± SD of three independent experiments, read-out: IC50 (μM) OATP1B3; for Correctness of prediction, second symbol (OATP1B3): inhibitor class from measured IC50 against the consensus prediction. As for the experimental part: as §1, §2

In data set [3] the test system is OATP1B1. Also noted: method as in PMID 25603031. To be noted: commercial library of 640 FDA-approved drugs; cited from earlier work.
For data set [4] the following is noted: cited from earlier work.
Data set [5] deals with OATP1B3. To be noted: commercial library of 640 FDA-approved drugs; cited from earlier work.
Data set [6] has as its system OATP1B1. Also noted: method as in PMID 23571415. To be noted: cited from earlier work.
The subject of data set [7] is OATP1B1. Also on record: method as in PMID 22541068. To be noted: cited from earlier work.

Where a name gives a salt, the structure may show the parent alone.

Regarding `CCC(=O)O[C@@H](O[P@](=O)(CCCCc1ccccc1)CC(=O)N1C[C@H](C2CCCCC2)C[C@H]1C(=O)O)C(C)C` [Fosinopril sodium], on OATP1B1 [1], the IC50 – broadly, the concentration at which inhibition is half-maximal – was found to be 6.28 ± 1.13 µM; the “Correctness of prediction, first symbol (OATP1B1)” value is “+,+ (moderate inhibitors (IC50 values between 5 and 10 μM))”. Moreover, at OATP1B3 [2], the IC50 came out at 5.19 ± 0.98 µM; the “Correctness of prediction, second symbol (OATP1B3)” value was “+,+ (moderate inhibitors (IC50 values between 5 and 10 μM))”. Moreover, the “rank among OATP1B1 inhibitors in the screen of van de Steeg et al.” value in the data set on OATP1B1 [3] was 20 strongest OATP1B1 and OATP1B3 inhibitors. Moreover, in data set [4], the “hepatotoxicity, literature reports” value is “some literature reports for hepatotoxicity”; the “hyperbilirubinemia, reports in online sources and literature” value (from here on “hyperbilirubinemia, reports”) is given as “causing hyperbilirubinemia”. In addition, the “rank among OATP1B3 inhibitors in the screen of van de Steeg et al.” value in the data set with OATP1B3 [5] was 20 strongest OATP1B1 and OATP1B3 inhibitors.
For the compound `O=C(O)c1cc(/N=N/c2ccc(S(=O)(=O)Nc3ccccn3)cc2)ccc1O` [sulfasalazine], the “OATP1B1 inhibition class as annotated by De Bruyn et al.” value in the data set with OATP1B1 [6] is reported as “noninhibitor”. In addition, the “OATP1B1 inhibition class as evaluated by Karlgren et al.” value in the data set on OATP1B1 [7] is reported as “inhibitor”.
With `CO[C@H]1C[C@@H]2CC[C@@H](C)[C@@](O)(O2)C(=O)C(=O)N2CCCC[C@H]2C(=O)O[C@H]([C@H](C)C[C@@H]2CC[C@@H](O)[C@H](OC)C2)CC(=O)[C@H](C)/C=C(\C)[C@@H](O)[C@@H](OC)C(=O)[C@H](C)C[C@H](C)/C=C/C=C/C=C/1C` [Rapamycin (Sirolimus)], at OATP1B1 [1], the IC50 is 0.62 ± 0.19 µM and the “Correctness of prediction, first symbol (OATP1B1)” value is given as “+++,+++ (strong inhibitor (IC50 values less than 1 μM))”. For the same compound, on OATP1B3 [2], the “Correctness of prediction, second symbol (OATP1B3)” value was “+++,+++ (strong inhibitor (IC50 values less than 1 μM))”. Also, the “rank among OATP1B1 inhibitors in the screen of van de Steeg et al.” value in the data set with OATP1B1 [3] is 20 strongest OATP1B1 and OATP1B3 inhibitors. In data set [4], the “hepatotoxicity, literature reports” value was “some literature reports for hepatotoxicity”; the “hyperbilirubinemia, reports” value is listed as “causing hyperbilirubinemia”. Besides, the “rank among OATP1B3 inhibitors in the screen of van de Steeg et al.” value with OATP1B3 [5] was 20 strongest OATP1B1 and OATP1B3 inhibitors.
`CCCCc1oc2ccc(NS(C)(=O)=O)cc2c1C(=O)c1ccc(OCCCN(CCCC)CCCC)cc1` [Dronedarone hydrochlorid e]: on OATP1B1 [1], the IC50 is 0.32 ± 0.07 µM and the “Correctness of prediction, first symbol (OATP1B1)” value is reported as “+++ (strong inhibitor (IC50 values less than 1 μM))”. In addition, at OATP1B3 [2], the IC50 was found to be 1.12 ± 0.2 µM; the “Correctness of prediction, second symbol (OATP1B3)” value is “++ (moderately strong inhibitor (IC50 values between 1 and 5 μM))”. For the same compound, in data set [4], the “hepatotoxicity, literature reports” value is on record as “some literature reports for hepatotoxicity”; the “hyperbilirubinemia, reports” value is recorded as “causing hyperbilirubinemia”.
